From patent US9067905B2, “Sulphone compounds and methods of making and using same” (Zafgen, Inc., priority 2009, dated 2015)
Structures can show the parent of a compound that is named as a salt.

molecular target: T1, recombinant human MetAP2 (Homo sapiens, UniProt P50579); test: Inhibition of recombinant human MetAP2 activity (Amplex red fluorescence assay); type: biochemical; settings: manganese Flag-MetAP2, 0.75 mM Methionine-Alanine-Serine substrate, 30 minutes at 25° C., pH 7.5, 1% DMSO
T1 construct: Flag; made in house; host or cells: Sf9 insect cells
T1 sequence (P50579 whole entry): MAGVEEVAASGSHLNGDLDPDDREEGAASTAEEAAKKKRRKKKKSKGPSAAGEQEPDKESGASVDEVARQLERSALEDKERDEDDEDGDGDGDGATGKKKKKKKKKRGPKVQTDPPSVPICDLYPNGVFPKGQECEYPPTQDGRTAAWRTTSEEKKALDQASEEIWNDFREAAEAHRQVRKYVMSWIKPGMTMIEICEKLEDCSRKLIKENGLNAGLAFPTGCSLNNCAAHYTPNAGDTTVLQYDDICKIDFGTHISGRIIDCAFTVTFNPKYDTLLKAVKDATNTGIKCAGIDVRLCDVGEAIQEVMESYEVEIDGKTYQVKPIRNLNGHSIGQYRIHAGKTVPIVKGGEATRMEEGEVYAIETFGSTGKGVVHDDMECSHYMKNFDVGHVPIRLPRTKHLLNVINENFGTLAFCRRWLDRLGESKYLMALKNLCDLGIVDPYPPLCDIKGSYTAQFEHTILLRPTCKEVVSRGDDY
Description: Compounds are tested for their capacity to inhibit recombinant human MetAP2 activity using the following assay.
Human recombinant Flag-MetAP2 expressed in Sf9 cells followed by affinity purification and EDTA treatment to remove endogenous active site cation is dialysed against MnCl2 to produce the manganese enzyme used in the assay. The assay is carried out for 30 minutes at 25° C. in 50 mM HEPES buffer containing 100 mM NaCl, pH 7.5 the presence of 0.75 mM Methionine-Alanine-Serine (MAS) substrate and 50 μg/ml amino acid oxidase using a dilution of purified MetAP2 giving approximately 50,000 RFU control activity. Cleavage of the substrate by MetAP2 and oxidation of free methionine by amino acid oxidase is detected and quantified using fluorescence generated by Amplex red (10-acetyl-3,7-dihydroxyphenoxazine) in combination with horseradish peroxidase which detects H2O2 released during the oxidation step. The fluorescent signal is detected using a multiwell fluorimeter. Compounds are diluted in DMSO prior to addition to assay buffer, the final DMSO concentration in the assay being 1%.
The IC50 is defined as the concentration at which a given compound achieves 50% inhibition of control. IC50 values are calculated using the XLfit software package (version 2.0.5).

SMILES | IC50 [nM]
COc1c(-c2cnco2)ccc(CS(=O)(=O)c2ccccc2)c1C(=O)O [6-(Benzenesulphonylmethyl)-2-methoxy-3-(oxazol-5-yl)benzoic acid] | 200 to 2000
COc1c(-n2cccn2)ccc(CS(=O)(=O)c2ccccc2)c1C(=O)O [6-(Benzenesulphonylmethyl)-2-methoxy-3-(pyrazol-1-yl)benzoic acid] | > 2000
COc1c(-c2cc[nH]n2)ccc(CS(=O)(=O)c2ccccc2)c1C(=O)O [6-(Benzenesulphonylmethyl)-2-methoxy-3-(pyrazol-3-yl)benzoic acid] | > 2000
COc1c(-c2nccs2)ccc(CS(=O)(=O)c2ccccc2)c1C(=O)O [6-(Benzenesulphonylmethyl)-2-methoxy-3-(thiazol-2-yl)benzoic acid] | > 2000
COc1c(-c2cncs2)ccc(CS(=O)(=O)c2ccccc2)c1C(=O)O [6-(Benzenesulphonylmethyl)-2-methoxy-3-(thiazol-5-yl)benzoic acid] | 200 to 2000
COc1c(C)ccc(CS(=O)(=O)c2ccccc2)c1C(=O)O [6-(Benzenesulphonylmethyl)-2-methoxy-3-methyl-benzoic acid] | 200 to 2000
CCCc1ccc(CS(=O)(=O)c2ccccc2)c(C(=O)O)c1OC [6-(Benzenesulphonylmethyl)-2-methoxy-3-propyl-benzoic acid] | > 2000
COc1c(-n2ccnc2)ccc(CS(=O)(=O)c2ccccc2)c1C(=O)O [6-(Benzenesulphonylmethyl)-3-(imidazol-1-yl)-2-methoxybenzoic acid] | > 2000
COc1c(Br)ccc(CS(=O)(=O)c2ccccc2)c1C(=O)O [6-(Benzenesulphonylmethyl)-3-bromo-2-methoxybenzoic acid] | 200 to 2000
COc1c(C#N)ccc(CS(=O)(=O)c2ccccc2)c1C(=O)O [6-(Benzenesulphonylmethyl)-3-cyano-2-methoxy-benzoic acid] | > 2000
COc1c(C2CC2)ccc(CS(=O)(=O)c2ccccc2)c1C(=O)O [6-(Benzenesulphonylmethyl)-3-cyclopropyl-2-methoxy-benzoic acid] | 200 to 2000
CCc1ccc(CS(=O)(=O)c2ccccc2)c(C(=O)O)c1-c1cc[nH]n1 [6-(Benzenesulphonylmethyl)-3-ethyl-2-(1H-pyrazol-3-yl)benzoic acid] | 200 to 2000
CCc1ccc(CS(=O)(=O)c2ccccc2)c(C(=O)O)c1-c1ccnn1C [6-(Benzenesulphonylmethyl)-3-ethyl-2-(2-methyl-2H-pyrazol-3-yl)-benzoic acid] | > 2000
CCc1ccc(CS(=O)(=O)c2ccccc2)c(C(=O)O)c1OC [6-(Benzenesulphonylmethyl)-3-ethyl-2-methoxy-benzoic acid] | 200 to 2000
COc1c(-c2ccns2)ccc(CS(=O)(=O)c2ccccc2)c1C(=O)O [6-(Benzenesulphonylmethyl-3-(isothiazol-5-yl)-2-methoxy-benzoic acid] | < 200
COc1c(-c2ccoc2)ccc(CS(=O)(=O)C2C3CCC2CC3)c1C(=O)O (stereo not drawn) [6-(Bicyclo[2.2.1]heptane-7-ylsulphonylmethyl)-3-(furan-3-yl)-2-methoxybenzoic acid] | 200 to 2000
COc1c(C2CCOC2)ccc(CS(=O)(=O)C2CC3CCC2CC3)c1C(=O)O (stereo not drawn) [6-(Bicyclo[2.2.2]octane-2-ylsulphonylmethyl)-2-methoxy-3-(tetrahydrofuran-3-yl)benzoic acid] | > 2000
COc1c(-c2ccoc2)ccc(CS(=O)(=O)C2CC3CCC2CC3)c1C(=O)O (stereo not drawn) [6-(Bicyclo[2.2.2]octane-2-ylsulphonylmethyl)-3-(furan-3-yl)-2-methoxybenzoic acid] | > 2000
COc1c(-c2ccoc2)ccc(CS(=O)(=O)C2CCCCC2)c1C(=O)O [6-(Cyclohexanesulphonylmethyl)-3-(furan-3-yl)-2-methoxybenzoic acid] | 200 to 2000
CCc1ccc(CS(=O)(=O)c2ccccc2)c(C(=O)O)c1-c1ccn(C)n1 [6-Benzenesulphonylmethyl-3-ethyl-2-(1-methyl-1H-pyrazol-3-yl)-benzoic acid] | > 2000
CCN(CC)CCOc1ccccc1S(=O)(=O)Cc1ccc(-c2ccoc2)c(OC)c1C(=O)O [6-[2-(2-Diethylaminoethoxy)benzenesulphonylmethyl]-3-(furan-3-yl)-2-methoxybenzoic acid] | > 2000
CCN(CC)CCNc1ccccc1S(=O)(=O)Cc1ccc(-c2ccoc2)c(OC)c1C(=O)O [6-[2-(2-Diethylaminoethylamino)benzenesulphonylmethyl]-3-(furan-3-yl)-2-methoxybenzoic acid] | 200 to 2000
CCN(CC)CC1CCN1c1ccccc1S(=O)(=O)Cc1ccc(-c2ccoc2)c(OC)c1C(=O)O (stereo not drawn) [6-[2-(2-Diethylaminomethylazetidin-1-yl)-benzenesulphonylmethyl]-3-(furan-3-yl)-2-methoxybenzoic acid] | > 2000
CCN(CC)CCCc1ccccc1S(=O)(=O)Cc1ccc(-c2ccoc2)c(OC)c1C(=O)O [6-[2-(3-Diethylaminopropyl)benzenesulphonylmethyl]-3-(furan-3-yl)-2-methoxybenzoic acid] | < 200

Next, values leading:

IC50 [nM] | SMILES
200 to 2000 | NC(=O)COc1c(-c2ccoc2)ccc(CS(=O)(=O)c2ccccc2)c1C(=O)O [6-(Benzenesulphonylmethyl)-2-(carbamoylmethoxy)-3-(furan-3-yl)-benzoic acid]
< 200 | N#CCOc1c(-c2ccoc2)ccc(CS(=O)(=O)c2ccccc2)c1C(=O)O [6-(Benzenesulphonylmethyl)-2-(cyanomethoxy)-3-(furan-3-yl)benzoic acid]
< 200 | N#CCNc1c(-c2ccoc2)ccc(CS(=O)(=O)c2ccccc2)c1C(=O)O [6-(Benzenesulphonylmethyl)-2-(cyanomethylamino)-3-(furan-3-yl)benzoic acid]
200 to 2000 | CCOc1c(-c2ccoc2)ccc(CS(=O)(=O)c2ccccc2)c1C(=O)O [6-(Benzenesulphonylmethyl)-2-ethoxy-3-(furan-3-yl)benzoic acid]
200 to 2000 | CCc1c(-c2ccoc2)ccc(CS(=O)(=O)c2ccccc2)c1C(=O)O [6-(Benzenesulphonylmethyl)-2-ethyl-3-(furan-3-yl)benzoic acid]
> 2000 | COc1c(-c2cccnc2)ccc(CS(=O)(=O)c2ccccc2)c1C(=O)O [6-(Benzenesulphonylmethyl)-2-methoxy-3-(3-pyridyl)benzoic acid]
> 2000 | COc1c(-c2cccs2)ccc(CS(=O)(=O)c2ccccc2)c1C(=O)O [6-(Benzenesulphonylmethyl)-2-methoxy-3-(thien-2-yl)benzoic acid]
> 2000 | COc1c(-c2ccccc2)ccc(CS(=O)(=O)c2ccccc2)c1C(=O)O [6-(Benzenesulphonylmethyl)-2-methoxy-3-phenylbenzoic acid]
> 2000 | COc1c(-c2ccsc2)ccc(CS(=O)(=O)c2ccccc2)c1C(=O)O [6-(Benzenesulphonylmethyl)-2-methyoxy-3-(thien-3-yl)benzoic acid]
> 2000 | COc1c(-c2ccco2)ccc(CS(=O)(=O)c2ccccc2)c1C(=O)O [6-(Benzenesulphonylmethyl)-3-(furan-2-yl)-2-methoxy-benzoic acid]
200 to 2000 | COc1cc(CS(=O)(=O)c2ccccc2)c(C(=O)O)c(OC)c1-c1ccoc1 [6-(Benzenesulphonylmethyl)-3-(furan-3-yl)-2,4-dimethoxybenzoic acid]
< 200 | O=C(O)c1c(CS(=O)(=O)c2ccccc2)ccc(-c2ccoc2)c1OCCO [6-(Benzenesulphonylmethyl)-3-(furan-3-yl)-2-(2-hydroxyethoxy)benzoic acid]
> 2000 | COCCOc1c(-c2ccoc2)ccc(CS(=O)(=O)c2ccccc2)c1C(=O)O [6-(Benzenesulphonylmethyl)-3-(furan-3-yl)-2-(2-methoxyethoxy)-benzoic acid]
> 2000 | CC#Cc1c(-c2ccoc2)ccc(CS(=O)(=O)c2ccccc2)c1C(=O)O [6-(Benzenesulphonylmethyl)-3-(furan-3-yl)-2-(prop-1-yn-1-yl)benzoic acid]
> 2000 | CNCCOc1c(-c2ccoc2)ccc(CS(=O)(=O)c2ccccc2)c1C(=O)O [6-(Benzenesulphonylmethyl)-3-(furan-3-yl)-2-[2-(methylamino)-ethoxy]benzoic acid hydrochloride]
< 200 | COc1c(-c2ccoc2)ccc(CS(=O)(=O)c2ccccc2)c1C(=O)O [6-(Benzenesulphonylmethyl)-3-(furan-3-yl)-2-methoxy-benzoic acid]
< 200 | CNc1c(-c2ccoc2)ccc(CS(=O)(=O)c2ccccc2)c1C(=O)O [6-(Benzenesulphonylmethyl)-3-(furan-3-yl)-2-methylamino benzoic acid]
200 to 2000 | COc1c(-c2cnsc2)ccc(CS(=O)(=O)c2ccccc2)c1C(=O)O [6-(Benzenesulphonylmethyl)-3-(isothiazol-4-yl)-2-methoxybenzoic acid]
> 2000 | COc1c(-c2ccon2)ccc(CS(=O)(=O)c2ccccc2)c1C(=O)O [6-(Benzenesulphonylmethyl)-3-(isoxazol-3-yl)-2-methoxybenzoic acid]
> 2000 | COc1c(-c2cocn2)ccc(CS(=O)(=O)c2ccccc2)c1C(=O)O [6-(Benzenesulphonylmethyl)-3-(oxazol-4-yl)-2-methoxybenzoic acid]
> 2000 | O=C(O)c1c(CS(=O)(=O)c2ccccc2)ccc(-c2ccoc2)c1O [6-(benzenesulphonylmethyl)-3-(furan-3-yl)-2-hydroxybenzoic acid]
